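Each compound was tested at five concentrations against cells in 96-well plates for 48 hours. At the GI50, growth is halved.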 The source made the active and inactive calls. Cut-off read from the data, not from the text of the source: active = GI50 up to about 1.1 µM and inactive = higher.
What was measured:
Assay in all cases: NCI anticancer screen, dose series, 48 h
HT-29 = tested on: HT-29
LOX IMVI = tested on: LOX IMVI
SNB-19 = tested on: SNB-19
MDA-MB-231 = tested on: MDA-MB-231
SK-MEL-5 = tested on: SK-MEL-5
RXF 393 = tested on: RXF 393
MOLT-4 = tested on: MOLT-4
A549 = tested on: A549
HOP-62 = tested on: HOP-62
SK-OV-3 = tested on: SK-OV-3
SW-620 = tested on: SW-620
NCI-H522 = tested on: NCI-H522
DU-145 = tested on: DU-145
ACHN = tested on: ACHN
SK-MEL-2 = tested on: SK-MEL-2
COLO 205 = tested on: COLO 205
TK-10 = tested on: TK-10
NCI-H23 = tested on: NCI-H23
HCC 2998 = tested on: HCC 2998
M14 = tested on: M14
OVCAR-8 = tested on: OVCAR-8
SF-295 = tested on: SF-295
IGROV-1 = tested on: IGROV-1
UACC-62 = tested on: UACC-62
HCT-15 = tested on: HCT-15
T47D = tested on: T47D
SF-268 = tested on: SF-268
Malme-3M = tested on: Malme-3M
K562 = tested on: K562
MCF7 = tested on: MCF7
HOP-92 = tested on: HOP-92
CCRF-CEM = tested on: CCRF-CEM
OVCAR-4 = tested on: OVCAR-4
SR = tested on: SR
PC-3 = tested on: PC-3
SNB-75 = tested on: SNB-75
EKVX = tested on: EKVX
SN12C = tested on: SN12C
CAKI-1 = tested on: CAKI-1
HL-60 = tested on: HL-60
NCI-H460 = tested on: NCI-H460
NCI/ADR-RES = tested on: NCI/ADR-RES
SF-539 = tested on: SF-539
BT-549 = tested on: BT-549
RPMI-8226 = tested on: RPMI-8226
SK-MEL-28 = tested on: SK-MEL-28
U-251 = tested on: U-251
MDA-MB-435 = tested on: MDA-MB-435
OVCAR-3 = tested on: OVCAR-3
KM12 = tested on: KM12
UO-31 = tested on: UO-31
UACC-257 = tested on: UACC-257
786-0 = tested on: 786-0
HCT-116 = tested on: HCT-116
NCI-H226 = tested on: NCI-H226
OVCAR-5 = tested on: OVCAR-5
Hs-578T = tested on: Hs-578T
A498 = tested on: A498

Measured: GI50

CCOC(=O)C(C(=S)Nc1ccccc1)c1nn2c(=O)cc(C)nc2s1 (configuration not stated)
27.7 µM: HCT-15
inactive: HT-29 19.3 µM | LOX IMVI 14.4 µM | SNB-19 35.6 µM | MDA-MB-231 31.8 µM | SK-MEL-5 23.1 µM | RXF 393 39.1 µM | MOLT-4 25 µM | A549 37.4 µM | HOP-62 65 µM | SK-OV-3 23.3 µM | SW-620 46.7 µM | NCI-H522 22.3 µM | DU-145 36.3 µM | ACHN 20.5 µM | SK-MEL-2 36.2 µM | COLO 205 20.1 µM | TK-10 29.7 µM | NCI-H23 35.6 µM | HCC 2998 25.1 µM | M14 22.9 µM | OVCAR-8 23.6 µM | SF-295 32.4 µM | IGROV-1 36.7 µM | UACC-62 23.7 µM | T47D 25.5 µM | SF-268 28.8 µM | Malme-3M 22.9 µM | K562 20.9 µM | MCF7 19.4 µM | HOP-92 16.4 µM | CCRF-CEM 33.8 µM | OVCAR-4 30.8 µM | SR 25.1 µM | PC-3 24.8 µM | SNB-75 16.9 µM | EKVX 21.6 µM | SN12C 36.7 µM | CAKI-1 20.1 µM | HL-60 20.5 µM | NCI-H460 31.6 µM | NCI/ADR-RES 26.7 µM | SF-539 22.9 µM | BT-549 25.2 µM | RPMI-8226 26.3 µM | SK-MEL-28 21.1 µM | U-251 26.7 µM | MDA-MB-435 20.9 µM | OVCAR-3 24.5 µM | KM12 25.4 µM | UO-31 22.2 µM | UACC-257 22.7 µM | 786-0 39.8 µM | HCT-116 20.8 µM | NCI-H226 21.7 µM | OVCAR-5 35.3 µM | Hs-578T 41 µM

N#Cc1c(N2CCOCC2)[nH]c(=O)c(C(c2c(Cl)cccc2Cl)c2c(O)c(C#N)c(N3CCOCC3)[nH]c2=O)c1O
15 µM: HCT-15
inactive: HT-29 15.4 µM | LOX IMVI 13 µM | SNB-19 16.1 µM | MDA-MB-231 16.6 µM | SK-MEL-5 16.6 µM | RXF 393 14.1 µM | MOLT-4 16.1 µM | A549 77.6 µM | HOP-62 22.1 µM | SW-620 17.7 µM | NCI-H522 13.4 µM | DU-145 23.9 µM | ACHN 16.1 µM | SK-MEL-2 17.6 µM | COLO 205 13.8 µM | TK-10 17.5 µM | NCI-H23 16.2 µM | HCC 2998 12.5 µM | M14 17.9 µM | OVCAR-8 18.6 µM | SF-295 30.5 µM | IGROV-1 18.1 µM | UACC-62 16.6 µM | SF-268 19.5 µM | Malme-3M 12.9 µM | K562 11.2 µM | MCF7 16.7 µM | HOP-92 18 µM | CCRF-CEM 15.1 µM | OVCAR-4 17.7 µM | SR 5.89 µM | PC-3 17.8 µM | EKVX 18.3 µM | SN12C 20.1 µM | CAKI-1 18.1 µM | HL-60 12.9 µM | NCI-H460 > 100 µM | NCI/ADR-RES 27.4 µM | SF-539 19.1 µM | BT-549 17.6 µM | RPMI-8226 21.4 µM | SK-MEL-28 17.9 µM | U-251 16.7 µM | MDA-MB-435 16.6 µM | OVCAR-3 16.4 µM | A498 34.5 µM | KM12 16.1 µM | UO-31 18.2 µM | UACC-257 17.8 µM | 786-0 32 µM | HCT-116 28.3 µM | NCI-H226 23 µM | OVCAR-5 14 µM | Hs-578T 19.5 µM

— ChEMBL document CHEMBL1201862, “PubChem BioAssay data set” (2004)
